# Experimental data: patent US10323001B2, “Compositions for modulating a kinase cascade and methods of use thereof” (Athenex, Inc., priority 2006, dated 2019)
# Where a name gives a salt, the structure may show the parent alone.
# How the values were obtained:
# [1] = 5 mg/mL DI water dissolution experiment; assay type: physicochemical; set-up: key to dissolution state: P—Particulates partially dissolved; D—Particulates fully dissolved; settings: about 5 mg in 1 mL DI water, magnetic stirring
# Experimental: Dissolution experiments were performed on KX2-391 salts to provide a better understanding of the salts interaction in water. This was accomplished using a 5 mg/mL DI water dissolution experiment where 5 mg of each salt was weighed into a vial and 1 mL of DI wather was added. The solution was monitored visually with magnetic stirring over a 20 minute time period to observe the time of dissolution.
# Thermal stress = assay type: physicochemical; settings: 60° C., one week
# Experimental: Thermal stress experiments were performed on KX2-391.MSA, Form A. Each 1-dram amber vial was filled with approximately 20 mg of KX2-391.MSA, Form A capped and stored in a vacuum over at 60° C. for one week. The resulting solids were analyzed by XRPD and HPLC.
# [2] = Threshold solubility of salt screen 96 well plate; settings: salt screen well: 1 Equivalent of Acid, DI water
# Experimental: Following each addition, the plate was shaken to encourage mixing for at least 5 minutes prior to evaluation.
# [3] = Stability studies, 2 weeks at elevated temperature and/or relative humidity; assay type: physicochemical; settings: for Form After 2 Weeks (XRPD): initial Form A; for Time to deliquescence: 95% RH, mesylate
# Experimental: Stability studies were performed on KX2-391.MSA obtained in accordance with the process of the present invention (Example 4) using the conditions listed in Table 4 to determine the effects of exposure to elevated temperature and/or relative humidity on the crystalline form of KX2-391.MSA, Form A. After 2 weeks, the samples were analyzed by XRPD and HPLC to determine if any form change or degradation had occurred.
# [4] = Humidity chamber hygroscopicity study (salt solution chambers, visual inspection); assay type: physicochemical; set-up: key to Observations/Time (hr): FF—Free flowing powder; D—Complete deliquescence of sample observed; CC—Colour change of sample observed; settings: for XRPD after humidity chamber (compared with XRPD pattern of sponsor lot) / HPLC Assay (% Area Purity) after humidity chamber: up to 120 hr; for HPLC Assay (% Area Purity) after humidity chamber: initial 99.4
# Experimental: Further characterization of the hygroscopicity of the mesylate salt was performed using several humidity chambers to cover a range of humidity from 75, 88 to 95% RH. The 75, 88, and 95% RH chambers were prepared with NaCl, BaCl2.2H2O, and Na2HPO4.12 H2O respectively and were equilibrated for 48 hours prior to introducing the samples. Samples were placed into aluminum pans and monitored by visual inspection for up to five days. Table 3 summarizes the observations at 0, 3, 5, 24, 48, 72, 96 and 120 hour time points.
# Moisture sorption studies conducted at ambient temperature utilizing salt solution humidity chambers were conducted to evaluate solid stability by visual inspection.
# [5] = 40° C./75% RH, accelerated stability chamber
structure (smiles),measurement,setting,value
"O=C(Cc1ccc(-c2ccc(OCCN3CCOCC3)cc2)cn1)NCc1ccccc1 [KX2-391.MSA, 2-(5-(4-(2-morpholinoethoxy)phenyl)pyridine-2-yl)-N-benzylacetamide mesylate]",dissolution state,[1]; 0 s,P
same,dissolution state,[1]; 30 s,P
same,dissolution state,[1]; 1 min,D
same,HPLC purity after thermal stress,Thermal stress,99.3%
same,XRPD of solid after thermal stress,Thermal stress,"consistent with the pattern of the initial KX2-391.MSA, Form A"
same,Threshold solubility rank,[2]; Acetone,1
same,Threshold solubility rank,[2]; Dioxane,1
same,Threshold solubility rank,[2]; THF,1
same,stability of crystalline form after exposure to the accelerated stability conditions,"[3]; 2 weeks, conditions of Table 4",stable crystalline form
same,HPLC Purity (AUC) after 2 weeks,[3]; [5],>99%
same,Form After 2 Weeks (XRPD),[3]; [5],Form A
same,HPLC Purity (AUC) after 2 weeks,"[3]; 51% RH, saturated salt chamber",>99%
same,Form After 2 Weeks (XRPD),"[3]; 51% RH, saturated salt chamber",Form A
same,HPLC Purity (AUC) after 2 weeks,"[3]; 60° C./ambient humidity, oven",>99%
same,Form After 2 Weeks (XRPD),"[3]; 60° C./ambient humidity, oven",Form A
same,HPLC Purity (AUC) after 2 weeks,"[3]; 75% RH, saturated salt chamber",>99%
same,Form After 2 Weeks (XRPD),"[3]; 75% RH, saturated salt chamber",Form A
same,HPLC Purity (AUC) after 2 weeks,"[3]; 88% RH, saturated salt chamber",>99%
same,Form After 2 Weeks (XRPD),"[3]; 88% RH, saturated salt chamber",Form A
same,Time to deliquescence,"[3]; saturated salt chamber, listed as KX2-391-MSA",quesced <16 hrs
same,Time to deliquescence,[3]; saturated salt chamber,less than 16 hrs
same,Observations/Time (hr),"[4]; 75% RH (NaCl) chamber, 0 hr",FF
same,Observations/Time (hr),"[4]; 75% RH (NaCl) chamber, 3 hr",FF
same,Observations/Time (hr),"[4]; 75% RH (NaCl) chamber, 5 hr",FF
same,Observations/Time (hr),"[4]; 75% RH (NaCl) chamber, 24 hr",FF
same,Observations/Time (hr),"[4]; 75% RH (NaCl) chamber, 48 hr",FF
same,Observations/Time (hr),"[4]; 75% RH (NaCl) chamber, 72 hr",FF
same,Observations/Time (hr),"[4]; 75% RH (NaCl) chamber, 96 hr",FF
same,Observations/Time (hr),"[4]; 75% RH (NaCl) chamber, 120 hr",FF
same,XRPD after humidity chamber (compared with XRPD pattern of sponsor lot),[4]; 75% RH (NaCl) chamber,Consistent
same,HPLC Assay (% Area Purity) after humidity chamber,[4]; 75% RH (NaCl) chamber,99.4 % Area Purity
same,"stability in humidity chamber (deliquescence, decomposition by HPLC)","[4]; 75% RH, up to five days",stable
same,Observations/Time (hr),"[4]; 88% RH (BaCl2•2H2O) chamber, 0 hr",FF
same,Observations/Time (hr),"[4]; 88% RH (BaCl2•2H2O) chamber, 3 hr",CC
same,Observations/Time (hr),"[4]; 88% RH (BaCl2•2H2O) chamber, 5 hr",CC
same,Observations/Time (hr),"[4]; 88% RH (BaCl2•2H2O) chamber, 24 hr",CC
same,Observations/Time (hr),"[4]; 88% RH (BaCl2•2H2O) chamber, 48 hr",CC
same,Observations/Time (hr),"[4]; 88% RH (BaCl2•2H2O) chamber, 72 hr",CC
same,Observations/Time (hr),"[4]; 88% RH (BaCl2•2H2O) chamber, 96 hr",CC
same,Observations/Time (hr),"[4]; 88% RH (BaCl2•2H2O) chamber, 120 hr",CC
same,XRPD after humidity chamber (compared with XRPD pattern of sponsor lot),[4]; 88% RH (BaCl2•2H2O) chamber,Consistent
same,HPLC Assay (% Area Purity) after humidity chamber,[4]; 88% RH (BaCl2•2H2O) chamber,89.3 % Area Purity
same,colour of material after exposure,"[4]; 88% RH, up to five days",darker color yellow
same,degradation by HPLC,"[4]; 88% RH, up to five days",roughly 10 % area
same,deliquescence on exposure to high humidity,[4]; 95% RH,deliquesce within three hours
same,Observations/Time (hr),"[4]; 95% RH (Na2HPO4•12H2O) chamber, 0 hr",FF
same,Observations/Time (hr),"[4]; 95% RH (Na2HPO4•12H2O) chamber, 3 hr",D
same,Observations/Time (hr),"[4]; 95% RH (Na2HPO4•12H2O) chamber, 5 hr",D
same,Observations/Time (hr),"[4]; 95% RH (Na2HPO4•12H2O) chamber, 24 hr",D
same,Observations/Time (hr),"[4]; 95% RH (Na2HPO4•12H2O) chamber, 48 hr",D
same,Observations/Time (hr),"[4]; 95% RH (Na2HPO4•12H2O) chamber, 72 hr",D
same,Observations/Time (hr),"[4]; 95% RH (Na2HPO4•12H2O) chamber, 96 hr",D
same,Observations/Time (hr),"[4]; 95% RH (Na2HPO4•12H2O) chamber, 120 hr",D
